Read-outs that look alike come from different tables or passages of the source.
Tests used:
[1] = tested on: SKBR-3 human breast cancer cells; settings: SKBR-3 cells; previously reported in Ramalingam S, et al.; read-out: GI50s SKBR-3; cited from earlier work
[2] = tested on: MDA-MB-468 human breast cancer cells; settings: MDA-MB-468 cells; previously reported in Ramalingam S, et al.; read-out: GI50s MDA-MB-468; cited from earlier work
[3] = tested on: MDA-MB-231 human breast cancer cells; settings: MDA-MB-231 cells; previously reported in Ramalingam S, et al.; read-out: GI50s MDA-MB-231; cited from earlier work
[4] = tested on: MDA-MB-468 human breast cancer cells; experiment: MTT cell proliferation assay, MDA-MB-468; type: cell-based; settings: MDA-MB-468 cells, SEM < 10%, read-out: GI50s MDA-MB-468
Description: (§1) MCF-7, MDA-MB-231, MDA-MB-468 and SKBR-3 human breast cancer cells and LNCaP, PC-3, and CWR22Rv1 human prostate carcinoma cells (American Type Culture Collection, Manassas, Va., USA) were maintained in RPMI 1640 media (Gibco-Life Technologies, Grand Island, N.Y., USA) supplemented with 10% fetal bovine serum and 1% penicillin/streptomycin. Western blotting was done as mentioned previously,^8, 13b using the following antibodies: AR, Bad, Bax, Bcl-2, eIF4E, Mnk1, Mnk-2, N-cadherin, PARP, peIF4E^ser209 purchased from Cell Signaling Technology, Danvers, Mass., USA. Anti-Mnk2 was purchased from Sigma-Aldrich and normal rabbit IgG, cyclin D1 was from Santa Cruz Biotechnology, CA, USA.
(§2) Cells were plated (2500 cells/well) in 96 well plates and treated with or without specified compounds as described previously.^8a, 12b
(§3) The clinically relevant retinoids, ATRA and 4-HPR and the Mnk inhibitor, cercosporamide were used as comparators in the assays.

[5] = tested on: CWR22Rv1 human prostate carcinoma cells; experiment: MTT cell proliferation assay, CWR22Rv1; type: cell-based; settings: SEM < 10%, read-out: GI50s CWR22Rv1
Description: as §1, §2, §3
(§4) The PC-3 cell line was the least sensitive to all the compounds tested.

MDA-MB-231 cells = experiment: Wound-healing assay, MDA-MB-231 cell migration; type: cell-based, human; settings: 5 μM, 24 h
Protocol: (§5) Wound healing assay and matrigel invasion assay were also conducted as described previously using highly metastatic PC-3 cells following treatment with 5 μM of RRs for 24 h.^8a,26
(§6) Based on previous studies with closely related compound,^8 the inhibitory effects of Compounds 16, 20 and 22 on cell migration were evaluated, using the human metastatic BC cell line, MDA-MB-231 by wound-healing assay. MDA-MB-231 cells (5×10^5 cells/well) were seeded on Boyden chamber, grown to confluence and scratches made at experimental tome zero. The cells were treated with indicated compounds (5 μM each) for 24 h. Representative photomicrographs of initial and final wounds are shown at 100× magnification. […] At 24 hours after cell monolayers were wounded, control cells had completely filled in the scratched area.

[6] = tested on: SKBR-3 human breast cancer cells; experiment: MTT cell proliferation assay, SKBR-3; type: cell-based; settings: SK-BR-3, SKBR-3 cells, SEM < 10%, read-out: GI50s SKBR-3
Description: as §1, §2, §3

PC-3 cells = experiment: Wound-healing assay, PC-3 cell migration; type: cell-based, human; settings: 5 μM, 24 hours
Protocol: as §5
as §6, with “PC” for “BC”, “PC-3” for “MDA-MB-231”, “hours.” for “h.”

[7] = tested on: MCF-7 human breast cancer cells; experiment: MTT cell proliferation assay, MCF-7; type: cell-based; settings: Homo sapiens, MCF7; MCF-7 cells, MTT, SEM < 10%; read-out: GI50s MCF-7
Description: as §1, §2, §3

[8] = tested on: fAR, Mnk1/2, peIF4E, cyclin D1 and cleaved PARP; experiment: Western blot of lysates from LNCaP cells; type: cell-based, human; settings: 0.6-20 μM, 24 hours
Description: as §1
Equal protein concentrations from LNCaP cells treated with Compounds 16, 20 and 22 at different concentrations (0.6-20 μM) for 24 hours were separated by SDS-PAGE and western blots probed with antibodies to fAR, Mnk1/2, peIF4E, cyclin D1 and cleaved PARP. Vehicle treated cells were included as a control and all blots were reprobed for β-actin for loading control.

[9] = tested on: Mnk1 and 2, peIF4E, eIF4E and cPARP; experiment: Western blot of lysates from MCF-7, MDA-MB-231 and MDA-MB-468 cells; type: cell-based, human; settings: MCF-7, MDA-MB-231, MDA-MB-468 cells, 24 hours
Description: as §1
As we previously reported, the anti-proliferative effects of the 1st generation MNKDAs in BC cells was due to degradation of Mnk1/2 with subsequent depletion of peIF4E and induction of apoptosis.^8a To determine if these compounds modulate Mnk1/2 and related oncogenic proteins, the inventors performed western blot of lysates from MCF-7, MDA-MB-231 and MDA-MB-468 human breast cancer cells treated with Compounds 16, 20, and 22, or with vehicle (DMSO, negative control), or Compound 6 (positive control). Equal protein concentrations from MCF-7 (FIG. 3A), MDA-MB-231 (FIG. 3B) and MDA-MB-468 (FIG. 3C) cells treated for 24 hours with Compounds 16, 20 and 22 at the various concentrations as indicated and Compound 6 (20 μmol/L) were separated by SDS-PAGE and western blots probed with antibodies to Mnk1 and 2, peIF4E, eIF4E and cPARP. Vehicle treated cells were included as control and all blots were reprobed for GAPDH for loading control.

[10] = tested on: MDA-MB-231 human breast cancer cells; experiment: MTT cell proliferation assay, MDA-MB-231; type: cell-based; settings: MDA-MB-231 cells, SEM < 10%, read-out: GI50s MDA-MB-231
Description: as §1, §2, §3

[11] = tested on: PC-3 human prostate carcinoma cells; experiment: MTT cell proliferation assay, PC-3; type: cell-based; settings: PC-3 cells, SEM < 10%, read-out: GI50s PC-3
Description: as §1, §2, §3, §4

[12] = tested on: LNCaP human prostate carcinoma cells; experiment: MTT cell proliferation assay, LNCaP; type: cell-based; settings: SEM < 10%, read-out: GI50s LNCaP
Description: as §1, §2, §3, §4

[13] = tested on: Mnk-1, peIF4E and their downstream targets; experiment: Molecular analysis of MDA-MB-231 tumors; type: in vivo; settings: MDA-MB-231 tumors from treated mice
Description: To assess their in vivo mode of action, we evaluated the effects of Compounds 20 and 22 on Mnk-1, peIF4E and their downstream targets.

[14] = tested on: MDA-MB-231 xenograft tumors; experiment: MDA-MB-231 anti-tumor efficacy study (xenograft); type: in vivo
Protocol: All animal studies were performed according to the guidelines and approval of the Animal Care Committee of the University of Maryland School of Medicine, Baltimore (UMB). Female Athymic Nude mice or male SCID (Charles Rivers Laboratories or UMB facilities) at 4-6 weeks of age were maintained in a pathogen-free environment. MDA-MB-231 (10×10^6) cells were subcutaneously implanted into Athymic Nude mice and CWR22Rv1 (1×10^6) cells into male SCID mice. Mice bearing established tumors (˜100 mm^3) were randomized into treatment groups of 6 and dosed with vehicle (40% β-cyclodexdrin in ddH2O), or compounds 20 and 22 (i.p., formulated in 40% β-cyclodexdrin in ddH2O, once daily, 5 days a week for 28 days).
The National Cancer Institute (NCI) criteria^23 were used to determine tumor growth efficacy of our compounds. Thus, percent test or treatment/control (% T/C), defined as the ratio of the median tumor volume for the treated group versus control group, was calculated as % T/C=[(median tumor volume of treated group at day 28)/(median tumor volume of control group at day 28)]×100.
Indeed, the two compounds were equipotent (FIG. 9A). […] Representative photos of the tumor-bearing mice in the control and the two treatment groups at termination of experiment (day 28) are presented in FIG. 9B.

[15] = tested on: MCF-7, MDA-MB-231, MDA-MB-468 and SKBR-3 human breast cancer cells; experiment: MTT cell proliferation assay, four breast cancer cell lines together; type: cell-based; settings: range across the four BC cell lines, read-out: GI50s, range over the BC cell lines
Description: as §1, §2, §3

[16] = tested on: PC-3 human prostate carcinoma cells; settings: PC-3 cells; previously reported in Ramamurthy V et al.; read-out: GI50s PC-3; cited from earlier work
[17] = tested on: CWR22Rv1 human prostate carcinoma cells; settings: previously reported in Ramamurthy V et al., read-out: GI50s CWR22Rv1; cited from earlier work
[18] = tested on: LNCaP human prostate carcinoma cells; settings: previously reported in Ramamurthy V et al., read-out: GI50s LNCaP; cited from earlier work
[19] = MDA-MB-231 xenograft mice, i.p. 20 mg/kg 5×/week over 28 days

| SMILES | IC50 [1] [nM] | IC50 [2] [nM] | IC50 [3] [nM] | IC50 [4] [nM] | IC50 [5] [nM] | IC50 [6] [nM] | migration of PC-3 cells (PC-3 cells) | IC50 [7] [nM] | cleaved PARP (c-PARP) [8] | cyclin D1 [8] | expression of total eIF4E [8] | expressions of fAR, Mnk1 and Mnk2 [8] | expression of total eIF4E [9] | expressions of Mnk1, Mnk2 and peIF4E [9] | formation of c-PARP (apoptosis) [9] | IC50 [10] [nM] | IC50 [11] [nM] | IC50 [12] [nM] | further results |
| --- | --- | --- | --- | --- | --- | --- | --- | --- | --- | --- | --- | --- | --- | --- | --- | --- | --- | --- | --- |
| CC(=O)C1=C(O)C=C2Oc3c(C(N)=O)c(O)cc(O)c3[C@]2(C)C1=O [Cerco., cercosporamide] | 26000 | 47900 | 43600 |  |  |  |  |  |  |  |  |  |  |  |  |  |  |  |  |
| CC1=C(/C=C/C(C)=C/C=C/C(C)=C\C(=O)NCc2ccc(O)cc2)C(C)(C)CCC1n1ccnc1 (centres unmarked) [Compound 22, (2Z,4E,6E,8E)-9-(3-(1H-imidazol-1-yl)-2,6,6-trimethylcyclohex-1-en-1-yl)-N-(4-hydroxybenzyl)-3,7-dimethylnona-2,4,6,8-tetraenamide] |  |  |  | 2700 | 1860 | 2450 | significantly inhibited migration | 160 | induced cleaved PARP | significant depletion | no noticeable effects | significantly and in a dose-dependent fashion, reduced | no noticeable effects | significantly and dose-dependently, reduced | dose-dependent formation of c-PARP | 2230 | 3540 | 1690 | migration of MDA-MB-231 cells (MDA-MB-231 cells): significantly inhibited migration; Mnk1/2, peIF4E, cyclin D1 and Bcl-2 in tumors [13]: depletion; pro-apoptotic proteins Bad and Bax in tumors [13]: up-regulation; body weight [14, 19]: did not lose body weight; signs of toxicity / adverse events [14, 19]: no apparent adverse events; suppression of tumor growth ([14]; MDA-MB-231 xenografts, i.p. 20 mg/kg 5×/week over 28 days): 85.4%; % T/C (treated/control median tumor volume) ([14]; MDA-MB-231 xenografts, i.p. 20 mg/kg 5×/week, day 28): 14.6% |
| CC1=C(/C=C/C(C)=C/C=C/C(C)=C\C(=O)Nc2ccccc2)C(C)(C)CCC1n1ccnc1 (centres unmarked) [Compound 16, (2Z,4E,6E,8E)-9-(3-(1H-imidazol-1-yl)-2,6,6-trimethylcyclohex-1-en-1-yl)-3,7-dimethyl-N-phenylnona-2,4,6,8-tetraenamide] |  |  |  | 2540 | 1280 | 1730 | significantly inhibited migration | 1900 | induced cleaved PARP | significant depletion | no noticeable effects | significantly and in a dose-dependent fashion, reduced | no noticeable effects | significantly and dose-dependently, reduced | dose-dependent formation of c-PARP | 1740 | 8910 | 2690 | IC50 [15]: 1740 to 2540 nM |
| CC1=C(/C=C/C(C)=C/C=C/C(C)=C/C(=O)O)C(C)(C)CCC1 [ATRA, all-trans retinoic acid] | 22900 | 14100 | 14100 |  |  |  |  |  |  |  |  |  |  |  |  |  |  |  | IC50 [16]: 36300 nM; IC50 [17]: 25100 nM; IC50 [18]: 47900 nM |

Reference: patent US10793525B2, “13-cis-RAMBA retinamides that degrade MNKs for treating cancer” (UNIVERSITY OF MARYLAND, BALTIMORE, priority 2014, dated 2020)
